Broadly, the melting point is the temperature, or range, at which the solid turns liquid. As usually defined, the CC50 is the concentration that lowers cell viability or growth by half.

In one data set the test system is K562 cells. Briefly: K562 cell viability assay (resazurin). Type of data set: cell-based, human. The note with it: for CC50: Homo sapiens, K562 cells, concentration-response curve. For orientation: Resazurin is reduced to fluorescent resorufin, in cell work by metabolically active cells.
Data set [1] in a line: WSS-1 cell viability assay (resazurin). Type of data set: cell-based. The conditions noted are these: human, WSS-1 cells (renal epithelium, adenovirus 5 transformed), concentration-response curve.
Protocol: The assays were performed on two cell lines, as described below. […] WSS-1 (ATCC® CRL2029 ™): the cells used in this work were a healthy human cell line obtained from the renal epithelium of a fetus and transformed with adenovirus 5 DNA (ATCC: The Global Bioresource Center c). […] WSS-1 cells were cultured in high-glucose DMEM (Vitrocell) according to the provider’s recommendations (ATCC: The Global Bioresource Center c). The media were supplemented with 10% fetal bovine serum (FBS) and 50 μg/mL gentamicin. All cell lines were grown in a cell culture bottle with a 0.22 μm pore membrane filter on the lid, allowing the circulation of CO2. WSS-1 cells grew adherently, while cells of the K562 strain grew in suspension. All strains were maintained at 35 °C, at 5% CO2. In addition, all cell lines were routinely evaluated before freezing for storage in liquid nitrogen in the vapor phase for the detection of mycoplasma.
For the evaluation of the cytotoxic actions of the synthesized compounds, resazurin (Sigma-Aldrich) was used at a concentration of 0.1 mg/mL. The resazurin salt (Alamar Blue®) has a blue, nonfluorescent color and can be reduced to resorufin, which is pink and highly fluorescent. This process is an indicator of cell proliferation and fluorescent/colorimetric cytotoxicity with redox properties.
The first step of this assay consisted of plating the cells, with 5 × 10^4 cells per well. In this experiment, black plates with transparent bottoms and 96 wells (Greiner Bio-One) were used, and after plating, the cells were returned to the incubator for a period of approximately 20 h to allow growth and cell adhesion. The next step consisted of adding the obtained compounds, followed by incubation for a period of 46 h. Then, resazurin was added at a final concentration per well of 0.01 mg/mL, and immediately, the first fluorescence reading (λex = 560 nm; λex = 590 nm) (zero time) was performed using a FlexStation 3 microplate reader (Molecular Devices). After the first reading, the plate was returned to the incubator, and after two hours, the second reading was performed, completing 48 h of incubation with the compounds. As a negative control, cells treated with DMSO at a concentration of 0.5% instead of the obtained compounds were used. […] Preliminary screening of the compounds was carried out at fixed concentrations (1 and 10 μM) in triplicate. […] It should be noted that each experiment was carried out at least in duplicate. The fluorescence value at time zero (time immediately after the addition of resazurin) in each well was subtracted from the values obtained after two hours of incubation with resazurin. The average value with zero-time subtraction was used as 100% cell viability and was applied to calculate the percentage of cell viability in each well. […]
A short description of data set [2]: Solubility observed during concentration-response curve. The note with it: in the cell assay concentration-response curve. Type of data set: physicochemical. On the procedure: Subsequently, a concentration-response curve was constructed for compounds 2g and 2h.
Where [3] appears, read: 48 h incubation, resazurin, read-out: CC50 K562.
Setting [4] is: unit inferred, read-out: CC50 K562 (Figure 5).
[5] abbreviates: WSS-1 cells, unit inferred, read-out: CC50 WSS1 (Figure 5).
The mark [6] stands for this setting: WSS-1 healthy cells, 48 h incubation, resazurin, read-out: CC50 WSS-1.

Like-named read-outs stand apart in the source and are kept apart here.

Protocol for K562 cells: The assays were performed on two cell lines, as described below. […] The K562 strain was grown in RPMI-1640 medium (R8758, Sigma-Aldrich, St. Louis, MO, USA) according to the provider’s recommendations and the literature [27, 28]. […] The media were supplemented with 10% fetal bovine serum (FBS) and 50 μg/mL gentamicin. All cell lines were grown in a cell culture bottle with a 0.22 μm pore membrane filter on the lid, allowing the circulation of CO2. […] All strains were maintained at 35 °C, at 5% CO2.
For the evaluation of the cytotoxic actions of the synthesized compounds, resazurin (Sigma-Aldrich) was used at a concentration of 0.1 mg/mL.
Standardization of this assay was not carried out in this project; thus, the following ideal values were used for the execution of the experiment: quantity of cells of 2 × 10^4 cell/mL, incubation time with the compounds of 48 h, incubation time with resazurin of one hour and DMSO used within the limit of 0.5%. As the cells grew in suspension, a long incubation period for adherence was not necessary. After plating, the cells were incubated for one hour, and then the prepared compounds were added and incubated for 47 h. After this period, resazurin was added at a final concentration per well of 0.01 mg/mL, and the first fluorescence reading (λex = 560 nm; λex = 590 nm) (zero time) was performed immediately using FlexStation 3 microplates (Molecular Devices). After the first reading, the plate was returned to the incubator, and after one hour, the second reading was performed, completing 48 h of incubation with the compounds. The compounds were solubilized in DMSO (Sigma-Aldrich) at concentrations ranging from 16.66 to 50 mM and maintained at −30 °C.
Analyses of the data obtained and graph construction were performed with the aid of GraphPad Prism 6 software (GraphPad Software Inc., San Diego, CA, USA).

As for `CCOC(=O)c1cnc2ccccc2c1Nc1ccc(C)c(Nc2nccc(-c3cccnc3)n2)c1` [2e, Ethyl 4-((4-methyl-3-((4-(pyridin-3-yl)pyrimidin-2-yl)amino)phenyl)amino)quinoline-3-carboxylate], the melting point is 208 to 211 °C.

Consider `Cc1ccc(Nc2ccnc3ccccc23)cc1Nc1nccc(-c2cccnc2)n1` [2g, 4-Methyl-N^3-(4-(pyridin-3-yl)pyrimidin-2-yl)-N^1-(quinolin-4-yl)benzene-1,3-diamine], for which the melting point was in the range of 153 to 157 °C. Besides, in the data set with K562 cells (setting [3]), the CC50 came out at 900 nM. In the data set with K562 cells (setting [4]), the CC50 was determined as 874 nM. The “percentage of cell viability inhibition” value in the data set on K562 cells (K562 screening at 10 µM (Figure 4)) is “higher percentage of cell viability inhibition than IMT and BST”. The CC50 at 48 h in data set [1] (setting [5]) worked out at 215 nM. The CC50 at 48 h in data set [1] (setting [6]) was 200 nM.

The compound `Cc1ccc(Nc2ccc3cccc(Cl)c3n2)cc1Nc1nccc(-c2cccnc2)n1` [2h, N^1-(8-Chloroquinolin-2-yl)-4-methyl-N^3-(4-(pyridin-3-yl)pyrimidin-2-yl)benzene-1,3-diamine] gave a melting point of 237 to 239 °C. In the data set on K562 cells (setting [3]), the CC50 was 6200 nM. The CC50 with K562 cells (setting [4]) is 6250 nM. In addition, in data set [2], the solubility entry is “low solubility at concentrations above 30 μM”. Moreover, the 50% cytotoxic concentration (CC50) at 48 h in data set [1] (setting [5]) worked out at 4920 nM. The 50% cytotoxic concentration (CC50) at 48 h in data set [1] (setting [6]) stood at 4900 nM.

On to `Cc1ccc(-n2cc(COc3ccnc4cc(Cl)ccc34)nn2)cc1Nc1nccc(-c2cccnc2)n1` [3a, N-(5-(4-(((7-Chloroquinolin-4-yl)oxy)methyl)-1H-1,2,3-triazol-1-yl)-2-methylphenyl)-4-(pyridin-3-yl)pyrimidin-2-amine], for which the melting point was 187 to 188 °C.

In the case of `Cc1ccc(-n2cc(CCCOc3ccnc4cc(Cl)ccc34)nn2)cc1Nc1nccc(-c2cccnc2)n1` [3b, N-(5-(4-(3-((7-Chloroquinolin-4-yl)oxy)propyl)-1H-1,2,3-triazol-1-yl)-2-methylphenyl)-4-(pyridin-3-yl)pyrimidin-2-amine], the melting point was 107 to 108 °C.

Compound `Cc1ccc(NC(=O)Cn2cc(COc3ccnc4cc(Cl)ccc34)nn2)cc1Nc1nccc(-c2cccnc2)n1` [4a, 2-(4-(((7-Chloroquinolin-4-yl)oxy)methyl)-1H-1,2,3-triazol-1-yl)-N-(4-methyl-3-((4-(pyridin-3-yl)pyrimidin-2-yl)amino)phenyl)acetamide] returned a melting point of 245 to 247 °C.

`Cc1ccc(NC(=O)Cn2cc(CCCOc3ccnc4cc(Cl)ccc34)nn2)cc1Nc1nccc(-c2cccnc2)n1` [4b, 2-(4-(3-((7-Chloroquinolin-4-yl)oxy)propyl)-1H-1,2,3-triazol-1-yl)-N-(4-methyl-3-((4-(pyridin-3-yl)pyrimidin-2-yl)amino)phenyl)acetamide] came in with a melting point of 145 to 146 °C.

For `Cc1ccc(NC(=O)c2ccc(CN3CCN(C)CC3)cc2)cc1Nc1nccc(-c2cccnc2)n1` [IMT, Imatinib, reference compound], in the data set on K562 cells (setting [3]), the 50% cytotoxic concentration (CC50) was found to be 80 nM.

These data come from article PMC8950477 (Pharmaceuticals, 2022).
